These are literature values, as cited in patent publication US8664392B2, “Pyrazine derivatives for bioconjugation” (MediBeacon, LLC, priority 2004, dated 2014).

For this data set the following is noted: absorb and emit in the blue to orange regions.

In the case of `Nc1nc(C(=O)O)c(N)nc1C(=O)O` [3,6-diamino-2,5-pyrazine-dicarboxylic acid], the Stokes shift was approximately 100 nm.
